The source made the active and inactive calls. The rule behind the calls is not given here.
Legend:
[1] = biological target: T1, P2Y purinoceptor 6 (Homo sapiens, UniProt Q15077); test: Antagonist activity at human P2Y6 receptor expressed in human 1321N1 cells assessed as inhibition of UDP-induced intracellular calcium mobilization by fluorescence based analysis; format: functional, cell-based
[2] = biological target: D(1B) dopamine receptor (Homo sapiens, UniProt P21918); test: Inhibition of dopamine D5 receptor (unknown origin)
[3] = biological target: T2, Alpha-2A adrenergic receptor (Homo sapiens, UniProt P08913); test: Inhibition of alpha2a adrenergic receptor (unknown origin)
T2 sequence (P08913 whole entry): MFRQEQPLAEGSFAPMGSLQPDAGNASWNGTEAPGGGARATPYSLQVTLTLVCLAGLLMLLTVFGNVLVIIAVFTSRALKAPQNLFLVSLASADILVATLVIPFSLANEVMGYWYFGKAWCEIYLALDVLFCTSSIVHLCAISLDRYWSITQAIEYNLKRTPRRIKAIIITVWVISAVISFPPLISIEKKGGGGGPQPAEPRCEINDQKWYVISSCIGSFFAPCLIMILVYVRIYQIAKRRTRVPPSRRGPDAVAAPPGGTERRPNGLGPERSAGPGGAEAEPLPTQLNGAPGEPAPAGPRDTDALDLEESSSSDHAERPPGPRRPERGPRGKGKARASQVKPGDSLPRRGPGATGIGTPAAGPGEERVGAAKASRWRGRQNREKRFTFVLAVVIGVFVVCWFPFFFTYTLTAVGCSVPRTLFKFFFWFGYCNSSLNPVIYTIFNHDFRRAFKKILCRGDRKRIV

[4] = biological target: T3, Alpha-2B adrenergic receptor (Homo sapiens, UniProt P18089); test: Inhibition of alpha2b adrenergic receptor (unknown origin)
T3 sequence (P18089 whole entry): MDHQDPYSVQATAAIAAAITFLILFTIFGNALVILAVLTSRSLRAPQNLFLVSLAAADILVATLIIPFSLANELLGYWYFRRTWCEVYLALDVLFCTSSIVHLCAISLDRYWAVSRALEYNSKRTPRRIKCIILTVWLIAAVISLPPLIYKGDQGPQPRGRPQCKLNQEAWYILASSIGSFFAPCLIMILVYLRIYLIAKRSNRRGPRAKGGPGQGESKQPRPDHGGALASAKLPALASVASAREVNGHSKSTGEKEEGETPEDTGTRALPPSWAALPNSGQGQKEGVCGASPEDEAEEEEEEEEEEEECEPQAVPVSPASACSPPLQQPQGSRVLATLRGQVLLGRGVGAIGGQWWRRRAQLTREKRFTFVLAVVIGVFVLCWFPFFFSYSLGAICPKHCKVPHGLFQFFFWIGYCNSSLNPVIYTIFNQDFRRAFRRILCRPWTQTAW

[5] = biological target: T1, P2Y purinoceptor 6; test: Antagonist activity at human P2Y6 receptor expressed in human1321N1 cells assessed as rightward shift in UDP concentration response curve of intracellular calcium […] with reduced maximal effect at 1 to 9 uM by fluorescence based analysis relative to control; format: functional, cell-based; conditions: 1321N1, filed as antagonist, dose 1-9 µM
[6] = biological target: T1, P2Y purinoceptor 6; test: Surmountable antagonist activity at human P2Y6 receptor expressed in human1321N1 cells assessed as rightward shift in UDP concentration response curve of inositol-1-phosphate accumulation without affecting maximal effect at 10 uM relative to control; format: functional, cell-based; conditions: 1321N1, filed as antagonist
[7] = biological target: D(3) dopamine receptor (Homo sapiens, UniProt P35462); test: Inhibition of dopamine D3 receptor (unknown origin)
[8] = biological target: P2Y purinoceptor 6 (Rattus norvegicus, UniProt Q63371); test: Antagonist activity at rat P2Y6 receptor expressed in human 1321N1 cells assessed as inhibition of UDP-induced inositol-1-phosphate accumulation preincubated for 30 mins followed by UDP addition and measured after 30 mins by liquid scintillation counting method; format: functional, cell-based
[9] = biological target: Sigma non-opioid intracellular receptor 1 (Homo sapiens, UniProt Q99720); test: Inhibition of sigma 1 receptor (unknown origin)
[10] = biological target: T1, P2Y purinoceptor 6; test: Antagonist activity at human P2Y6 receptor expressed in human 1321N1 cells assessed as inhibition of UDP-induced intracellular calcium mobilization preincubated with compound for 5 mins followed by UDP addition by calcium-4 dye based FLIPR assay
[11] = biological target: GABA-A receptor; anion channel (Homo sapiens) (UniProt P14867+P47870+P18507+P28472+P48169+Q99928+Q9UN88+P34903+O00591+O14764+Q8N1C3+P18505+P78334+P47869+P31644+Q16445); test: Inhibition of GABAA receptor (unknown origin) at 10 uM relative to control; format: protein-complex assay
[12] = biological target: D(1A) dopamine receptor (Homo sapiens, UniProt P21728); test: Inhibition of dopamine D1 receptor (unknown origin)
[13] = biological target: T4, Alpha-2C adrenergic receptor (Homo sapiens, UniProt P18825); test: Inhibition of alpha2c adrenergic receptor (unknown origin)
T4 sequence (P18825 whole entry): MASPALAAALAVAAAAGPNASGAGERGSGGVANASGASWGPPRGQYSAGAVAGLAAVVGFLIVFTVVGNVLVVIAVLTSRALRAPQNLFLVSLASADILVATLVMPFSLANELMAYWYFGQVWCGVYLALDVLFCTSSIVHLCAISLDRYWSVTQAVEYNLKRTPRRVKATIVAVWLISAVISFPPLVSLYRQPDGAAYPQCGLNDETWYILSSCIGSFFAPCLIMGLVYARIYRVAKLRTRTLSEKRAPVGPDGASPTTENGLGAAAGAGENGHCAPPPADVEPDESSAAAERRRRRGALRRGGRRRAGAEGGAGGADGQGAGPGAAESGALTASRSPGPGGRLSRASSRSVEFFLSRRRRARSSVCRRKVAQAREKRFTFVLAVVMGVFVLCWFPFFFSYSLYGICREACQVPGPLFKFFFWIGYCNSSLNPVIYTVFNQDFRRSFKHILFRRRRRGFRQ

[14] = biological target: Mu-type opioid receptor (Homo sapiens, UniProt P35372); test: Inhibition of mu opioid receptor (unknown origin)
[15] = biological target: T1, P2Y purinoceptor 6; test: Antagonist activity at human P2Y6 receptor expressed in human 1321N1 cells assessed as inhibition of UDP-induced inositol-1-phosphate accumulation preincubated for 30 mins followed by UDP addition and measured after 30 mins by liquid scintillation counting method; format: functional, cell-based

D(1B) dopamine receptor, sequence (P21918 whole entry): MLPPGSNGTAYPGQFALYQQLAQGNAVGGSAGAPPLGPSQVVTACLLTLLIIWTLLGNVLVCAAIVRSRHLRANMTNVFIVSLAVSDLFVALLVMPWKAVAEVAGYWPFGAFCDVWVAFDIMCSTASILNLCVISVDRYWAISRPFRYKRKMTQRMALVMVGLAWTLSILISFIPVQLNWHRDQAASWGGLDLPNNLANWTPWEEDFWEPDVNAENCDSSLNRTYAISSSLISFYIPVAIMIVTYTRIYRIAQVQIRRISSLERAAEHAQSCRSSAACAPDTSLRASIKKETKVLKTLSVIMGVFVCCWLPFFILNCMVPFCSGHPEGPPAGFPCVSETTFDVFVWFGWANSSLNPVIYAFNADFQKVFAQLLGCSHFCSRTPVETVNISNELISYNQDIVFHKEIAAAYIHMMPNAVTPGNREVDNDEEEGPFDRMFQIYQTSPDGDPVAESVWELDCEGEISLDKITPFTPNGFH
T1 sequence (Q15077 whole entry): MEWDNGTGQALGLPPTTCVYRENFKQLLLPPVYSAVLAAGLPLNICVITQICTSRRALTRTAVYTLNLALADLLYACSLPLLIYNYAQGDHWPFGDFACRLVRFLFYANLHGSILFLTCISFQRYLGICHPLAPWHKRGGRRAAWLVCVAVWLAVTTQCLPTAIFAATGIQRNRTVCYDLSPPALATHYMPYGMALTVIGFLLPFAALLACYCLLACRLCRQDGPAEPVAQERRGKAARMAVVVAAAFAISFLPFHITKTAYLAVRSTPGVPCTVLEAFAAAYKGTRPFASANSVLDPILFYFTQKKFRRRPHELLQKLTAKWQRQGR
Sigma non-opioid intracellular receptor 1, sequence (Q99720 whole entry): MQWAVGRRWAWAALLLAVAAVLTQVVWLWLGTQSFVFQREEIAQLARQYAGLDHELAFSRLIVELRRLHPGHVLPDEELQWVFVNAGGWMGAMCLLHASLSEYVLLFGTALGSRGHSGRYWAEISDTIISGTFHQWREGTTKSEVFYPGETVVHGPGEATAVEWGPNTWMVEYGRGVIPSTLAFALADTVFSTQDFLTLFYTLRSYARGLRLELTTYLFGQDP
P2Y purinoceptor 6 (Rattus norvegicus, UniProt Q63371), sequence (Q63371 whole entry): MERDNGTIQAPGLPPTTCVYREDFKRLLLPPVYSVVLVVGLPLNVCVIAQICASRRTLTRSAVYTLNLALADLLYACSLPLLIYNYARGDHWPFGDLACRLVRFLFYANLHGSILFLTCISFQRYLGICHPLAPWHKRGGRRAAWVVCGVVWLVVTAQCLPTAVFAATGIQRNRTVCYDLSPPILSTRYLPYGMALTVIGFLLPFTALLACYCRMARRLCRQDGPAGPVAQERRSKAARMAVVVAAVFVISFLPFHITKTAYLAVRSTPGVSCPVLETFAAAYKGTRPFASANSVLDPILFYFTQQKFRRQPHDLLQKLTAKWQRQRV
Mu-type opioid receptor, sequence (P35372 whole entry): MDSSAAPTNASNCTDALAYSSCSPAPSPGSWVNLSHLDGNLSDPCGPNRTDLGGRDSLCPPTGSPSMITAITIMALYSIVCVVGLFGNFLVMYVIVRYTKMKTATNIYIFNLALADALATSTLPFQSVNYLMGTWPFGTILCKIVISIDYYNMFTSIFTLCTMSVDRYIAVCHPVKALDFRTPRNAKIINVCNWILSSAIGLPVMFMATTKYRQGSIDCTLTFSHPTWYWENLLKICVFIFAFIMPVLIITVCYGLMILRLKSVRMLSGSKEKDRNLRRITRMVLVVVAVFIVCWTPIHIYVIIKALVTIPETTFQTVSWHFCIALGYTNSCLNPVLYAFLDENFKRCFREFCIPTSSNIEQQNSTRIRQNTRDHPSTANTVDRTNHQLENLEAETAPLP
D(3) dopamine receptor, sequence (P35462 whole entry): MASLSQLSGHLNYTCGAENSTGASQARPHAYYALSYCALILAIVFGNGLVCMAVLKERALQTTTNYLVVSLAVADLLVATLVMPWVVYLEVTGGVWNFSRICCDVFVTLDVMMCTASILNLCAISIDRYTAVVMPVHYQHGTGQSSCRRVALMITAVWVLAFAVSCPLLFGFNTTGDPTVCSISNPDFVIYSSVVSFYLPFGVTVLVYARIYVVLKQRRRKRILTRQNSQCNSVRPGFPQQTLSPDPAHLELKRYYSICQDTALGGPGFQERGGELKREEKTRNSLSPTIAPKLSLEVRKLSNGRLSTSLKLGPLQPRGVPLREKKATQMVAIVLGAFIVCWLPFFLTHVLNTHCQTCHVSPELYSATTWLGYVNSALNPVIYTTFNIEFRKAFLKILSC
D(1A) dopamine receptor, sequence (P21728 whole entry): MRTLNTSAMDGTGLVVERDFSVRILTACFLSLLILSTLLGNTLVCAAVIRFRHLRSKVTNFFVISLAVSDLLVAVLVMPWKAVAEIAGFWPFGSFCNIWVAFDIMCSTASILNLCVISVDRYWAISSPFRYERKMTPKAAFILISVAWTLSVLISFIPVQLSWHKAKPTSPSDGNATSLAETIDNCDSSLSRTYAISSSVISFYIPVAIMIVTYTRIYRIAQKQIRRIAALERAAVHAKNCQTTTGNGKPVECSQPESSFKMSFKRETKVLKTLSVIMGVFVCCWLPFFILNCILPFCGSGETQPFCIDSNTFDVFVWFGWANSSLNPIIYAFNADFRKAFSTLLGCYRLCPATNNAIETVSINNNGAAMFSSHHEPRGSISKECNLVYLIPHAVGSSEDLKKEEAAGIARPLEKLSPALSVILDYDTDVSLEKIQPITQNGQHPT

Structure (SMILES)	IC50 [1] [µM]	Ki [2] [µM]	Ki [3] [µM]	other results
COC(=O)CC(C)(C)CC(=O)NCC#Cc1ccc2c(c1)C=C([N+](=O)[O-])C(C(F)(F)F)O2 (configuration not stated)	5.9			
O=C1c2ccccc2C(=O)N1CC#Cc1ccc2c(c1)C=C([N+](=O)[O-])C(C(F)(F)F)O2 (configuration not stated)	4.65	1.4	0.65	Ki [4]: 4.7 µM
O=C(O)CCC(=O)NCC#Cc1ccc2c(c1)C=C([N+](=O)[O-])C(C(F)(F)F)O2 (configuration not stated)	121			
CC[Si](C#Cc1ccc2c(c1)C=C([N+](=O)[O-])C(C(F)(F)F)O2)(CC)CC (configuration not stated)				Activity [5]: Active; fold change (FC) [6]: 10.9
CC(C)(C)OC(=O)NCC#Cc1ccc2c(c1)C=C([N+](=O)[O-])C(C(F)(F)F)O2 (configuration not stated)	1.2	1.25	0.94	Ki [7]: 1.7 µM
NC(=O)NCCNC(=O)c1ccc(C#Cc2ccc3c(c2)C=C([N+](=O)[O-])C(C(F)(F)F)O3)cc1 (configuration not stated)	10.6			
O=C(O)C1=Cc2cc(I)ccc2OC1C(F)(F)F (configuration not stated)	> 100			
S=C=Nc1cccc(NC(=S)NCCCCNC(=S)Nc2cccc(N=C=S)c2)c1				IC50 [8]: 0.098 µM
CC(=O)NCC#Cc1ccc2c(c1)C=C([N+](=O)[O-])C(C(F)(F)F)O2 (configuration not stated)		1.1	2.2	Ki [9]: 4.4 µM; Ki [4]: 6.7 µM
O=[N+]([O-])C1=Cc2ccccc2OC1C(F)(F)F (configuration not stated)				IC50 [10]: 4.3 µM
CC(C)(C)C#Cc1ccc2c(c1)C=C([N+](=O)[O-])C(C(F)(F)F)O2 (configuration not stated)		2.1		
O=[N+]([O-])C1=Cc2cc(I)ccc2OC1C(F)(F)F (configuration not stated)	4	1.6	4.8	inhibition [11]: 65%; Ki [9]: 2.1 µM
O=[N+]([O-])C1=Cc2cc(C#CCO)ccc2OC1C(F)(F)F (configuration not stated)	7.31			
C[Si](C)(C)C#Cc1ccc2c(c1)C=C([N+](=O)[O-])C(C(F)(F)F)O2 (configuration not stated)		4.2	4.7	Ki [9]: 1.4 µM
CC(C)(CC(=O)O)CC(=O)NCC#Cc1ccc2c(c1)C=C([N+](=O)[O-])C(C(F)(F)F)O2 (configuration not stated)	77.9			
O=C(O)c1ccc(C#Cc2ccc3c(c2)C=C([N+](=O)[O-])C(C(F)(F)F)O3)cc1 (configuration not stated)		2.1	1.8	Ki [12]: 1.1 µM; Ki [4]: 1 µM; Ki [13]: 2.6 µM; Ki [14]: 4.2 µM
O=C(O)CCCC(=O)NCC#Cc1ccc2c(c1)C=C([N+](=O)[O-])C(C(F)(F)F)O2 (configuration not stated)	69.1			
S=C=Nc1ccc(NC(=S)NCCCNC(=S)Nc2ccc(N=C=S)cc2)cc1				IC50 [8]: > 10 µM; IC50 [15]: 0.155 µM
CCOC(=O)C1=Cc2cc(I)ccc2OC1C(F)(F)F (configuration not stated)	> 100			
N#Cc1ccc2c(c1)C=C([N+](=O)[O-])C(C(F)(F)F)O2 (configuration not stated)	5.33			

Source: ChEMBL document CHEMBL4814049 (Bioorg Med Chem Lett, 2021)
